Values of other authors in US9439853B2, “Form of administration of enkephalinase inhibitor” (BIOPROJET, priority 2010, dated 2016).

Conditions: for ondansetron the water phase of the suspension

CC(=O)SCC(Cc1ccccc1)C(=O)NCC(=O)OCc1ccccc1 (centres unmarked) [Racecadotril]
solubility in water: insoluble in water

Cc1nccn1CC1CCc2c(c3ccccc3n2C)C1=O (centres unmarked) [ondansetron]
solubility in water: soluble in the water phase of the suspension
